Laboratory results reported in US9737542B2, “Pyrrolotriazine kinase inhibitors” (BRISTOL-MYERS SQUIBB COMPANY, priority 2013, dated 2017).

molecular target: GST-Xa-hAAK1 (Homo sapiens (Human), UniProt Q2M2I8); experiment: AAK1 Kinase Assay; assay type: biochemical; conditions: ATP 22 μM; 3 hours at room temperature
Sequence (Q2M2I8 whole entry): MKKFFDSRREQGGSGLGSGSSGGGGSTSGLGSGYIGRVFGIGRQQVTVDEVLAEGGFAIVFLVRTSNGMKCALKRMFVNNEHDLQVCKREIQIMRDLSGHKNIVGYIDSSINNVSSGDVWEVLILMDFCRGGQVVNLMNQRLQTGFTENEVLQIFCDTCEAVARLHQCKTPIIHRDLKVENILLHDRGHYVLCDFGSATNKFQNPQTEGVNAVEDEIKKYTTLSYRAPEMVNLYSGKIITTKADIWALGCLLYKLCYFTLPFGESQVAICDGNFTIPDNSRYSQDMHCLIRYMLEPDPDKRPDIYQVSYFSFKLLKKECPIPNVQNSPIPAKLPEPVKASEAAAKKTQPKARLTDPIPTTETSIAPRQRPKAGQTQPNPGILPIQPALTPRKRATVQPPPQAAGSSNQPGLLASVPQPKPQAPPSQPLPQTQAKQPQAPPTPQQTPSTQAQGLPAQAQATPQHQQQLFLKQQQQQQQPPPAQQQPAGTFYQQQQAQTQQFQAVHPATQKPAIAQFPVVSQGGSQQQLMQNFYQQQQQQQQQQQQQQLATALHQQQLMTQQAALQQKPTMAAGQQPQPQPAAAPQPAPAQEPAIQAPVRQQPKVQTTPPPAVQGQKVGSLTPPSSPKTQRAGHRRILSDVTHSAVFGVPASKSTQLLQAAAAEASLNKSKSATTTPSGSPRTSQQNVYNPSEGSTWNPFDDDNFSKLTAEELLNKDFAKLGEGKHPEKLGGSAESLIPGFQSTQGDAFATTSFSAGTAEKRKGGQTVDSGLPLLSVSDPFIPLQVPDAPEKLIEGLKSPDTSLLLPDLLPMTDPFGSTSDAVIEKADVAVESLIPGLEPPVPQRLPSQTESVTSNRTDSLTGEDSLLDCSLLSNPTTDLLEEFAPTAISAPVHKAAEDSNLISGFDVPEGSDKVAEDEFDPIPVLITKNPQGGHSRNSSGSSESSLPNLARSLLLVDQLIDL
Experimental: The assays were performed in U-bottom 384-well plates. […] The reactions were initiated by the combination of bacterially expressed, GST-Xa-hAAK1 with substrates and test compounds. The reactions were incubated at room temperature for 3 hours and terminated by adding 60 μl of 35 mM EDTA buffer to each sample. The reactions were analyzed on the Caliper LabChip 3000 (Caliper, Hopkinton, Mass.) by electrophoretic separation of the fluorescent substrate and phosphorylated product. Inhibition data were calculated by comparison to EDTA quenched control reactions for 100% inhibition and vehicle-only reactions for 0% inhibition. […] Dose response curves were generated to determine the concentration required inhibiting 50% of kinase activity (IC50). Compounds were dissolved at 10 mM in dimethylsulfoxide (DMSO) and evaluated at eleven concentrations. IC50 values were derived by non-linear regression analysis.

Row | SMILES | IC50 [nM]
1 | COCCNC(=O)c1ccn2ncnc(Nc3cccc(-c4nnn(C(C)C)n4)c3)c12 [Example 108, 4-((3-(2-isopropyl-2H-tetrazol-5-yl)phenyl)amino)-N-(2-methoxyethyl)pyrrolo[2,1-f][1,2,4]triazine-5-carboxamide] | 289
2 | CCOC(=O)c1ccn2ncnc(Nc3cc(O)cc(-c4nnn(C(C)C)n4)c3)c12 [Example 95, ethyl 4-((3-hydroxy-5-(2-isopropyl-2H-tetrazol-5-yl)phenyl)amino)pyrrolo[2,1-f][1,2,4]triazine-5-carboxylate] | 2530
3 | CC(C)n1nnc(-c2cccc(Nc3ncnn4ccc(C(=O)NCC#N)c34)c2)n1 [Example 107, N-(cyanomethyl)-4-((3-(2-isopropyl-2H-tetrazol-5-yl)phenyl)amino)pyrrolo[2,1-f][1,2,4]triazine-5-carboxamide] | 469
4 | CC(C)c1nc(-c2cc(O)cc(Nc3ncnn4cccc34)c2)no1 [Example 85, 3-(5-isopropyl-1,2,4-oxadiazol-3-yl)-5-(pyrrolo[2,1-f][1,2,4]triazin-4-ylamino)phenol] | 82
5 | CC(C)n1nnc(-c2cccc(Nc3ncnn4ccc(CN5CCC(N)CC5)c34)c2)n1 [Example 8, 5-((4-aminopiperidin-1-yl)methyl)-N-(3-(2-isopropyl-2H-tetrazol-5-yl)phenyl)pyrrolo[2,1-f][1,2,4]triazin-4-amine] | 7.3
6 | CC(C)n1nnc(-c2cccc(Nc3ncnn4ccc(C(=O)N5CCC(N)CC5)c34)c2)n1 [Example 109, (4-aminopiperidin-1-yl)(4-((3-(2-isopropyl-2H-tetrazol-5-yl)phenyl)amino)pyrrolo[2,1-f][1,2,4]triazin-5-yl)methanone] | 4770
7 | CC(C)n1nnc(-c2cccc(Nc3ncnn4ccc(CNCC#N)c34)c2)n1 [Example 66, 2-(((4-((3-(2-isopropyl-2H-tetrazol-5-yl)phenyl)amino)pyrrolo[2,1-f][1,2,4]triazin-5-yl)methyl)amino)acetonitrile] | 1100
8 | CC(C)n1nnc(-c2cc(Nc3ncnn4ccc(CN5CCC(N)CC5)c34)ccc2F)n1 [Example 49, 5-((4-aminopiperidin-1-yl)methyl)-N-(4-fluoro-3-(2-isopropyl-2H-tetrazol-5-yl)phenyl)pyrrolo[2,1-f][1,2,4]triazin-4-amine] | 21
9 | CC(C)c1nnc(-c2cccc(Nc3ncnn4cccc34)c2)o1 [Example 80, N-(3-(5-isopropyl-1,3,4-oxadiazol-2-yl)phenyl)pyrrolo[2,1-f][1,2,4]triazin-4-amine] | 384
10 | CCOC(=O)c1ccn2ncnc(Nc3cccc(-c4nnn(C(C)C)n4)c3)c12 [Example 96, ethyl 4-((3-(2-isopropyl-2H-tetrazol-5-yl)phenyl)amino)pyrrolo[2,1-f][1,2,4]triazine-5-carboxylate] | 624
11 | Cc1ccn2ncnc(Nc3cccc(-c4noc(C(C)(C)CN)n4)c3)c12 [Example 91, N-(3-(5-(1-amino-2-methylpropan-2-yl)-1,2,4-oxadiazol-3-yl)phenyl)-5-methylpyrrolo[2,1-f][1,2,4]triazin-4-amine] | 63
12 | Cc1ccn2ncnc(Nc3cc(O)cc(-c4noc(C(C)C)n4)c3)c12 [Example 93, 3-(5-isopropyl-1,2,4-oxadiazol-3-yl)-5-((5-methylpyrrolo[2,1-f][1,2,4]triazin-4-yl)amino)phenol] | 73
13 | CC(C)n1nnc(-c2cccc(Nc3ncnn4ccc(C(=O)NCC5CC5)c34)c2)n1 [Example 105, N-(cyclopropylmethyl)-4-((3-(2-isopropyl-2H-tetrazol-5-yl)phenyl)amino)pyrrolo[2,1-f][1,2,4]triazine-5-carboxamide] | 785
14 | CC(C)c1nnc(-c2cccc(Nc3ncnn4cccc34)c2)s1 [Example 79, N-(3-(5-isopropyl-1,3,4-thiadiazol-2-yl)phenyl)pyrrolo[2,1-f][1,2,4]triazin-4-amine] | 269
15 | Cc1ccn2ncnc(Nc3cccc(-c4noc(C(C)C)n4)c3)c12 [Example 86] | 123
16 | CC(C)n1nnc(-c2cccc(Nc3ncnn4ccc(CO)c34)c2)n1 [Example 98, (4-((3-(2-isopropyl-2H-tetrazol-5-yl)phenyl)amino)pyrrolo[2,1-f][1,2,4]triazin-5-yl)methanol] | 92

same assay, conditions: ATP 22 μM; 3 hours at room temperature; listed as IC50 ranges

Row | SMILES | IC50 [nM]
17 | CCc1nnc(-c2cccc(Nc3ncnn4ccc(CN5CCC(N)CC5)c34)c2)[nH]1 [Example 15, 5-((4-aminopiperidin-1-yl)methyl)-N-(3-(5-ethyl-4H-1,2,4-triazol-3-yl)phenyl)pyrrolo[2,1-f][1,2,4]triazin-4-amine] | 10 to 100
18 | CC(=O)NC1CCN(Cc2ccn3ncnc(Nc4cccc(-c5nnc(C(C)C)s5)c4)c23)CC1 [Example 53, N-(1-((4-((3-(5-isopropyl-1,3,4-thiadiazol-2-yl)phenyl)amino)pyrrolo[2,1-f][1,2,4]triazin-5-yl)methyl)piperidin-4-yl)acetamide] | 10 to 100
19 | CC(C)n1nnc(-c2cc(Nc3ncnn4ccc(CN5CCC(N)CC5)c34)c3[nH]ccc3c2)n1 [Example 74, 5-((4-aminopiperidin-1-yl)methyl)-N-(5-(2-isopropyl-2H-tetrazol-5-yl)-1H-indol-7-yl)pyrrolo[2,1-f][1,2,4]triazin-4-amine] | 10 to 100
20 | NC1CCN(Cc2cc(Br)n3ncnc(Nc4cccc(-c5cnco5)c4)c23)CC1 [Example 68, 5-((4-aminopiperidin-1-yl)methyl)-7-bromo-N-(3-(oxazol-5-yl)phenyl)pyrrolo[2,1-f][1,2,4]triazin-4-amine] | 1000 to 5000
21 | NC1CCN(Cc2ccn3ncnc(Nc4cccc(-c5noc(CCl)n5)c4)c23)CC1 [Example 11, 5-((4-aminopiperidin-1-yl)methyl)-N-(3-(5-(chloromethyl)-1,2,4-oxadiazol-3-yl)phenyl)pyrrolo[2,1-f][1,2,4]triazin-4-amine] | 100 to 1000
22 | CNC1CCN(Cc2ccn3ncnc(Nc4cccc(-c5nnc(C(C)C)s5)c4)c23)CC1 [Example 27, N-(3-(5-isopropyl-1,3,4-thiadiazol-2-yl)phenyl)-5-((4-(methylamino)piperidin-1-yl)methyl)pyrrolo[2,1-f][1,2,4]triazin-4-amine] | 100 to 1000
23 | CC(C)n1nnc(-c2ccc(F)c(Nc3ncnn4ccc(CN5CCC(N)CC5)c34)c2)n1 [Example 50, 5-((4-aminopiperidin-1-yl)methyl)-N-(2-fluoro-5-(2-isopropyl-2H-tetrazol-5-yl)phenyl)pyrrolo[2,1-f][1,2,4]triazin-4-amine] | 100 to 1000
24 | NC1CCN(Cc2ccn3ncnc(Nc4cccc(-c5cnco5)c4)c23)CC1 [Example 1, 5-((4-aminopiperidin-1-yl)methyl)-N-(3-(oxazol-5-yl)phenyl)pyrrolo[2,1-f][1,2,4]triazin-4-amine] | 100 to 1000
25 | Cc1nc(-c2cccc(Nc3ncnn4ccc(CN5CCC(N)CC5)c34)c2)no1 [Example 13, 5-((4-aminopiperidin-1-yl)methyl)-N-(3-(5-methyl-1,2,4-oxadiazol-3-yl)phenyl)pyrrolo[2,1-f][1,2,4]triazin-4-amine] | 100 to 1000
26 | CC(C)(CO)c1nc(-c2cccc(Nc3ncnn4ccc(CN5CCC(N)CC5)c34)c2)no1 [Example 10, 2-(3-(3-((5-((4-aminopiperidin-1-yl)methyl)pyrrolo[2,1-f][1,2,4]triazin-4-yl)amino)phenyl)-1,2,4-oxadiazol-5-yl)-2-methylpropan-1-ol] | 10 to 100
27 | c1cc(Nc2ncnn3ccc(CN4CC5CNCC5C4)c23)cc(-c2nnc(C3CC3)s2)c1 (centres unmarked) [Example 26, N-(3-(5-cyclopropyl-1,3,4-thiadiazol-2-yl)phenyl)-5-((hexahydropyrrolo[3,4-c]pyrrol-2(1H)-yl)methyl)pyrrolo[2,1-f][1,2,4]triazin-4-amine] | 100 to 1000
28 | CC(C)c1nc(-c2cccc(Nc3ncnn4ccc(CN5CCC(N)CC5)c34)c2)no1 [Example 2, 5-((4-aminopiperidin-1-yl)methyl)-N-(3-(5-isopropyl-1,2,4-oxadiazol-3-yl)phenyl)pyrrolo[2,1-f][1,2,4]triazin-4-amine] | 10 to 100
29 | CC(C)n1nnc(-c2cccc(Nc3ncnn4ccc(CN5CCOCC5)c34)c2)n1 [Example 57, N-(3-(2-isopropyl-2H-tetrazol-5-yl)phenyl)-5-(morpholinomethyl)pyrrolo[2,1-f][1,2,4]triazin-4-amine] | 10 to 100
30 | CNC1CCN(Cc2ccn3ncnc(Nc4cccc(-c5noc(C(C)C)n5)c4)c23)CC1 [Example 39, N-(3-(5-isopropyl-1,2,4-oxadiazol-3-yl)phenyl)-5-((4-(methylamino)piperidin-1-yl)methyl)pyrrolo[2,1-f][1,2,4]triazin-4-amine] | 10 to 100
31 | CC(C)n1nnc(-c2cccc(Nc3ncnn4ccc(CNC5CC6CCC(C5)N6C)c34)c2)n1 (centres unmarked) [Example 58, N-(3-(2-isopropyl-2H-tetrazol-5-yl)phenyl)-5-((8-methyl-8-azabicyclo[3.2.1]octan-3-ylamino)methyl)pyrrolo[1,2-f][1,2,4]triazin-4-amine] | 1000 to 5000
32 | CC(C)n1nnc(-c2cccc(Nc3ncnn4ccc(CN5CCN(C)CC5)c34)c2)n1 [Example 54, N-(3-(2-isopropyl-2H-tetrazol-5-yl)phenyl)-5-((4-methylpiperazin-1-yl)methyl)pyrrolo[2,1-f][1,2,4]triazin-4-amine] | 100 to 1000
33 | CC(C)CNC(=O)c1cccc(Nc2ncnn3ccc(CN4CCC(N)CC4)c23)c1 [Example 33, 3-((5-((4-aminopiperidin-1-yl)methyl)pyrrolo[2,1-f][1,2,4]triazin-4-yl)amino)-N-isobutylbenzamide] | 10 to 100
34 | CC(C)c1nnc(-c2cccc(Nc3ncnn4ccc(CN5CCC(CN)C5)c34)c2)s1 (centres unmarked) [Example 31, 5-((3-(aminomethyl)pyrrolidin-1-yl)methyl)-N-(3-(5-isopropyl-1,3,4-thiadiazol-2-yl)phenyl)pyrrolo[2,1-f][1,2,4]triazin-4-amine] | 100 to 1000
35 | CNC1CCN(Cc2ccn3ncnc(Nc4cccc(-c5nnc(C6CC6)s5)c4)c23)CC1 [Example 24, N-(3-(5-cyclopropyl-1,3,4-thiadiazol-2-yl)phenyl)-5-((4-(methylamino)piperidin-1-yl)methyl)pyrrolo[2,1-f][1,2,4]triazin-4-amine] | 10 to 100
